According to patent US6521252B1, “Transfecting compounds which are sensitive to reducing conditions, pharmaceutical compositions containing them and their applications” (Aventis Pharma S.A., priority 1998, dated 2003):

Tests used:
HepG2 cells [1] = test: In vitro transfection efficiency, luciferase expression, HepG2 cells; assay type: cell-based; conditions: for inhibition of transfection due to the presence of serum proteins (in words): presence vs absence of serum
Description: (§1) The plasmid used is described in Patent WO 97/10343. This construct pCOR_pXL2774 comprises the gene encoding luciferase under the human cytomegalovirus very early gene promoter [hCMV-IE].
(§2) The nucleic acid solutions are diluted to 20 μg/ml in physiological saline (0.15 M NaCl).
(§3) The products described in the invention are dissolved in water at a concentration varying from 40 to 160 μmol and mixed volume for volume with the DNA solution. The final saline concentration is 75 mmol.

HepG2 cells [2] = test: Toxicity of cytofectant mixtures, protein concentrations in cell lysates, HepG2 cells; conditions: for toxicity (in words): up to 160 μM of cationic lipid
Description: (§4) The cells are cultured under appropriate conditions in 24-well microplates (2 cm^2/well) and are transfected while they are in the exponential growth phase and at 50-70% confluence.
(§5) The cells are washed with twice 0.5 cm^3 of medium free of serum proteins and grown again either in serum-free medium (transfection in the absence of serum), or in complete medium (transfection in the presence of serum) 0.05 cm^3 of cytofectant mixture (0.5 μg DNA/well) are added to the cells (3 wells/condition DNA vector). When the cells are transfected in the absence of serum, the growth medium is supplemented 2 hours after transfection with the appropriate quantity of serum.
(§6) The toxicity of the cytofectant mixtures is estimated by a measurement of the protein concentrations in the cell lysates.

HeLa cells [3] = test: Toxicity of cytofectant mixtures, protein concentrations in cell lysates, HeLa cells; assay type: cell-based; conditions: up to 160 μM of cationic lipid
Description: as §4, §5, §6

HeLa cells [4] = test: In vitro transfection efficiency, luciferase expression, HeLa cells; assay type: cell-based; conditions: for inhibition of transfection due to the presence of serum proteins (in words): presence vs absence of serum
Description: as §1, §2, §3

[5] = Detergent action: solubilization of liposomes EPC/EPA (10:1) measured by turbidity; conditions: turbidity by spectrophotometer; compared with Triton X-100 (100% solubilization)
Text: For that, an in vitro model is used which represents the biological membranes, namely liposomes EPC/EPA (egg phosphatidylcholine/egg phosphatidic acid, 10:1).
These liposomes are formed by dissolving the various constituents in chloroform, and then evaporating the said chloroform with the aid of a rotary evaporator. The lipid film obtained is redispersed in water, and then the liposomes are formed by sonication and heating.
The evaluation of the detergent action of the product added to the liposomes is made by measuring the turbidity with the aid of a spectrophotometer.

[6] = HepG2 cells, absence of serum proteins
[7] = HeLa cells, absence of serum proteins

Molecule	expression of the transgene compared with reference cationic lipid REF (HepG2 cells [1]; [6])	inhibition of transfection due to the presence of serum proteins (in words) (HepG2 cells [1]; HepG2 cells)	toxicity (in words) (HepG2 cells [2])	toxicity (in words) (HeLa cells [3])	inhibition of transfection due to the presence of serum proteins (in words) (HeLa cells [4]; HeLa cells)	other results
CCCCCCCCCCCCCCCCCCNC(=O)C(CSSCC(NC(=O)CNCCCNCCCCNCCCN)C(=O)NCCCCCCCCCCCCCCCCCC)NC(=O)CNCCCNCCCCNCCCN (stereo not shown) [compound (VI), [NH2(CH2)3NH (CH2)4NH (CH2)3NHCH2CO—CyNH (CH2)17CH3]2]						transgene expression in comparison with reference cationic lipid REF (HepG2 cells [1]; HepG2 cells, absence of serum (FIG. 3)): 4 times; survival (HepG2 cells [2]; transfection in the absence of serum proteins, cationic lipid dose 160 μM): 80%
NH2 (CH2)3NH(CH2)4NH(CH)3NHCH2COCys-[S—S—(CH2)17CH3]—NH (CH2)17CH3 [compound (II)]	up to 3 fold	no inhibitory effect	no significant toxicity			improvement of transfection compared with reference cationic lipid REF (HepG2 cells [1]; HepG2 cells, presence of serum proteins): up to 40 fold
NH2(CH2)3NH(CH2)4NH(CH2)3NHCH2COCyS-[S—S-Cholesterol]—NH(CH2)17CH3 [compound (V)]		no inhibition could be observed	no significant toxicity	no significant toxicity	no inhibition could be observed	gain in expression of the transgene, cholesterol instead of an alkyl chain (in words) (HepG2 cells [1]; HepG2 cells (FIG. 9)): very significant gain; gain in expression of the transgene, cholesterol instead of an alkyl chain (in words) (HeLa cells [4]; HeLa cells (FIG. 9)): very significant gain
NH2(CH2)3NH(CH2)4NH(CH2)3NHCH2COCys-[S—S—(CH2)4CH3]—N[(CH2)17CH3]2 [compound (I)]		no significant inhibition	no significant toxicity	no significant toxicity	no significant inhibition	transfection results compared with reference cationic lipid REF (in words) (HepG2 cells [1]; [6]): same order of magnitude; transfection results compared with reference cationic lipid REF (in words) (HeLa cells [4]; [7]): same order of magnitude
NH2(CH2)3NH(CH2)4NH(CH2)3NHCH2COCys-[S—S—(CH2)11CH3]—N[(CH2)17CH3]2 [compound (IV)]	about 9 fold	no significant inhibition	no significant toxicity	no significant toxicity	no significant inhibition	expression of the transgene compared with reference cationic lipid REF (HeLa cells [4]; [7]): about 2 fold
Triton X-100						solubilization of the liposomes [5]: 100%
